Measurements from patent US20240383874A1, “BENZENE RING DERIVATIVE, AND COMPOSITION AND PHARMACEUTICAL USE THEREOF” (Xizang Haisco Pharmaceutical Co., Ltd., priority 2020, published 2024).
Where a name gives a salt, the structure may show the parent alone. Read-outs that look alike come from different tables or passages of the source.

Legend:
[1] = test system: AR splice variants (AR-Vs); experiment: Degradation experiment on AR splice variants (AR-Vs) in 22RV1 cells; assay type: cell-based; details: 24 h; for AR-Vs Dmax % (maximum degradation rate): relative to vehicle control
Method: (§1) Prostate cancer cells 22RV1 were purchased from ATCC, the cell medium was 1640+10% FBS, and the cells were cultured in an incubator at 37° C. under 5% CO2. On day 1, the cells in an exponential phase were collected. With a 1% css-FBS phenol red-free medium, the cell suspension was adjusted to a corresponding concentration and plated into a 6-well plate at 1 mL/well and 100000 cells/well. The next day, a 1% css-FBS phenol-free medium containing the compound to be tested was added, a 1% css-FBS phenol-free medium containing 0.2% DMSO was added to one well as DMSO vehicle control, and the 6-well plate was cultured in an incubator at 37° C. under 5% CO2. After 24 h, the cells were digested with pancreatin and collected into a 1.5 mL centrifuge tube. 15 μL of RIPA lysate (containing 1×protease inhibitor cocktail) was added to each well, and the cells were lysed on ice for 15 min and then centrifuged at 12000 g and 4° C. for 10 min. The supernatant protein samples were collected, and protein quantification was performed by a BCA method. AR-FL and AR-Vs were detected using fully automatic protein expression quantitative analysis, which involved diluting the protein to be tested to 1 mg/mL. 4 μL of the diluted protein samples were added to 1 μL of 5×Master Mix (provided in the kit), and the prepared samples were denatured at 95° C. for 5 min and placed on ice for use. The primary antibodies, AR (CST, 5153S) and β-actin (CST, 3700), were diluted with Antibody Diluent II (provided in the kit) at a dilution ratio of 1:20 and 1:200, respectively. The secondary antibody was a mixed goat anti-mouse and goat anti-rabbit secondary antibody in a ratio of 1:1, and the color development solution was a mixed solution of Lumino-S and Peroxide in a ratio of 1:1. The prepared reagents were successively added to an assay plate according to instructions of the kit and detected on an instrument. Western blot band processing was performed using “Compass for SW”, a fully automatic protein expression quantitative analysis software, in which western blot bands were automatically simulated based on signal values. The degradation rate of AR-FL (3) or AR-Vs (4) relative to vehicle control at different compound concentrations was calculated according to formulas (3) and (4), wherein AR-FLcompound was the relative peak area of AR-FL in the treated group, and AR-FLsolvent was the relative peak area of AR-FL in the vehicle control group; AR-Vscompound was the relative peak area of AR-Vs in the treated group, and AR-Vssolvent was the relative peak area of AR-Vs in the vehicle control group.
(§2) DC50 calculation: the compound concentration DC50 values at which the degradation rate of AR-FL or AR-Vs was 50% were calculated using OriginPro2015 software and analyzed using DoseResp function according to formula (3) or (4).

[2] = test system: full-length AR (AR-FL); experiment: Degradation experiment on full-length AR (AR-FL) in 22RV1 cells; assay type: cell-based; details: 24 h; for AR-FL Dmax % (maximum degradation rate): relative to vehicle control
Method: as §1, §2

[3] = test system: 22RV1 cells; experiment: Experiment 2 on inhibiting 22RV1 cell proliferation (7 days, CellTiter-Glo); assay type: cell-based; details: 1% css-FBS phenol red-free medium, incubated with compound 7 days, read-out: IC50 values on proliferation inhibition of 22RV1 cells
In short: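 Survival measured by CellTiter-Glo after 7 days of compound exposure, normalised to DMSO controls, with IC50 fitted by dose-response. Cells (22RV1, 2000/well) were seeded overnight in 1% css-FBS phenol red-free medium before dosing.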

[4] = Pharmacokinetic test in rats; assay type: in vivo; details: rat, po; male SD rats, single dose i.g. 5 mg/kg, plasma, 0-24 h
Method: Test objective: in this test, a single dose of test compounds was administered to SD rats intragastrically, and the concentrations of the test compounds in plasma of the rats were measured to evaluate pharmacokinetic characteristics of the test compounds in the rats.
Test animals: male SD rats, 200-250 g, 6-8 weeks old, 3 rats/compound, purchased from Chengdu Dossy Experimental Animals Co., Ltd.
Test method: on the day of the test, 3 SD rats were randomly grouped according to their body weights. The animals were fasted with water available for 12 to 14 hours one day before the administration of a test compound, and were fed 4 hours after the administration.
Sampling: before and after the administration, 0.1 mL of blood was taken from the orbits of the rats under isoflurane anesthesia, and placed in an EDTAK2 centrifuge tube. Centrifugation was carried out at 5000 rpm at 4C for […], and the plasma was collected.
Time points for plasma collection in G1 group: 0, 5 min, 15 min, 30 min, 1 h, 2 h, 4 h, 6 h, 8 h, and 24 h.
Before analysis and detection, all samples were stored at −80° C. The samples were analyzed quantitatively by LC-MS/MS.

[5] = degradation rate 50% relative to vehicle control

Structure (SMILES): Cn1c(=O)n(C2CCC(=O)NC2=O)c2cccc(CN3CCC(CN4CCC(C5CCN(c6nccc(COc7ccc(C(C)(C)c8cc(Cl)c(OCCCl)c(C#N)c8)cc7)n6)CC5)CC4)CC3)c21 (stereo not shown) [Compound 126 trifluoroacetate, 3-chloro-2-(2-chloroethoxy)-5-(2-(4-((2-(1′-((1-((1-(2,6-dioxopiperidin-3-yl)-3-methyl-2-oxo-2,3-dihydro-1H-benzo[d]imidazol-4-yl)methyl)piperidin-4-yl)methyl)-[4,4′-bipiperidin]-1-yl)pyrimidin-4-yl)methoxy)phenyl)propan-2-yl)benzonitrile]
- AR-Vs Dmax % (maximum degradation rate) [1]: 95%
- AR-FL Dmax % (maximum degradation rate) [2]: 98%

Structure (SMILES): CC(C)(c1ccc(OCc2ccnc(N3CCN(C4CCN(C5CN(c6ccc7c(c6)C(=O)N(C6CCC(=O)NC6=O)C7=O)C5)CC4)CC3)n2)cc1)c1cc(Cl)cc(C#N)c1 (stereo not shown) [Compound 10, 3-chloro-5-(2-(4-((2-(4-(1-(1-(2-(2,6-dioxopiperidin-3-yl)-1,3-dioxoisoindolin-5-yl)azetidin-3-yl)piperidin-4-yl)piperazin-1-yl)pyrimidin-4-yl)methoxy)phenyl)propan-2-yl)benzonitrile]
- AR-Vs Dmax % (maximum degradation rate) [1]: 64%
- IC50 [3]: 562 nM

Structure (SMILES): Cn1c(=O)n(C2CCC(=O)NC2=O)c2cccc(CN3CC(N4CCC(N5CCN(c6nccc(COc7ccc(C(C)(C)c8cc(Cl)cc(C#N)c8)cc7)n6)CC5)CC4)C3)c21 (stereo not shown) [Compound 9 trifluoroacetate, 3-chloro-5-(2-(4-((2-(4-(1-(1-((1-(2,6-dioxopiperidin-3-yl)-3-methyl-2-oxo-2,3-dihydro-1H-benzo[d]imidazol-4-yl)methyl)azetidin-3-yl)piperidin-4-yl)piperazin-1-yl)pyrimidin-4-yl)methoxy)phenyl)propan-2-yl)benzonitrile (Compound 9) trifluoroacetate]
- AR-Vs Dmax % (maximum degradation rate) [1]: 76.8%
- AR-FL Dmax % (maximum degradation rate) [2]: 68.3%

Structure (SMILES): CCOc1c(Cl)cc(C(C)(C)c2ccc(OCc3ccnc(N4CCC(CN5CCC(C6CCN(c7ccc8c(c7)n(C)c(=O)n8C7CCC(=O)NC7=O)CC6)CC5)CC4)n3)cc2)cc1C#N (stereo not shown) [Compound 94 trifluoroacetate, 3-chloro-5-(2-(4-((2-(4-((1′-(1-(2,6-dioxopiperidin-3-yl)-3-methyl-2-oxo-2,3-dihydro-1H-benzo[d]imidazol-5-yl)-[4,4′-bipiperidin]-1-yl)methyl)piperidin-1-yl)pyrimidin-4-yl)methoxy)phenyl)propan-2-yl)-2-ethoxybenzonitrile]
- AR-Vs Dmax % (maximum degradation rate) [1]: 83%
- AR-FL Dmax % (maximum degradation rate) [2]: 84%
- AUC(0-t) [4]: 1700 ± 335 ng·h/mL
- IC50 ([3]; Homo sapiens, 22Rv1, 168 h): 678 nM

Structure (SMILES): COc1c(Cl)cc(C(C)(C)c2ccc(OCc3ccnc(N4CCC(CN5CCC(N6CCC(c7ccc8c(c7)n(C)c(=O)n8C7CCC(=O)NC7=O)CC6)CC5)CC4)n3)cc2)cc1C#N (stereo not shown) [Compound 116 trifluoroacetate, 3-chloro-5-(2-(4-((2-(4-((4-(1-(2,6-dioxopiperidin-3-yl)-3-methyl-2-oxo-2,3-dihydro-1H-benzo[d]imidazol-5-yl)-[1,4′-bipiperidin]-1′-yl)methyl)piperidin-1-yl)pyrimidin-4-yl)methoxy)phenyl)propan-2-yl)-2-methoxybenzonitrile]
- AR-Vs Dmax % (maximum degradation rate) [1]: 67%
- AR-FL Dmax % (maximum degradation rate) [2]: 77%
- IC50 ([3]; Homo sapiens, 22Rv1, 168 h): 821 nM

Structure (SMILES): CC(C)(c1ccc(OCc2ccnc(N3CCC(CN4CCC(C5CCN(c6ccc(C(=O)NC7CCC(=O)NC7=O)nc6)CC5)CC4)CC3)n2)cc1)c1cc(Cl)cc(C#N)c1 (stereo not shown) [Compound 110 trifluoroacetate, 5-(1′-((1-(4-((4-(2-(3-chloro-5-cyanophenyl)propan-2-yl)phenoxy)methyl)pyrimidin-2-yl)piperidin-4-yl)methyl)-[4,4′-bipiperidin]-1-yl)-N-(2,6-dioxopiperidin-3-yl)picolinamide]
- AR-Vs Dmax % (maximum degradation rate) [1]: 56%
- AUC(0-t) [4]: 563 ± 350 ng·h/mL
- IC50 ([3]; Homo sapiens, 22Rv1, 168 h): 446 nM

Structure (SMILES): COc1c(Cl)cc(C(C)(C)c2ccc(OCc3ccnc(N4CCC(CN5CCC(C6CCN(c7ccc8c(c7)n(C)c(=O)n8C7CCC(=O)NC7=O)CC6)CC5)CC4)n3)cc2)cc1C#N (stereo not shown) [Compound 97 trifluoroacetate, 3-chloro-5-(2-(4-((2-(4-((1′-(1-(2,6-dioxopiperidin-3-yl)-3-methyl-2-oxo-2,3-dihydro-1H-benzo[d]imidazol-5-yl)-[4,4′-bipiperidin]-1-yl)methyl)piperidin-1-yl)pyrimidin-4-yl)methoxy)phenyl)propan-2-yl)-2-methoxybenzonitrile (Compound 97) trifluoroacetate]
- DC50 [1, 5]: 1070 nM
- DC50 [2, 5]: 1180 nM
- AUC(0-t) [4]: 658 ± 133 ng·h/mL
- IC50 ([3]; Homo sapiens, 22Rv1, 168 h): 421 nM

Structure (SMILES): CCOc1c(Cl)cc(C(C)(C)c2ccc(OCc3ccnc(N4CCN(C5CCN(C6CN(Cc7cccc8c7n(C)c(=O)n8C7CCC(=O)NC7=O)C6)CC5)CC4)n3)cc2)cc1C#N (stereo not shown) [Compound 18, 3-chloro-5-(2-(4-((2-(4-(1-(1-((1-(2,6-dioxopiperidin-3-yl)-3-methyl-2-oxo-2,3-dihydro-1H-benzo[d]imidazol-4-yl)methyl)azetidin-3-yl)piperidin-4-yl)piperazin-1-yl)pyrimidin-4-yl)methoxy)phenyl)propan-2-yl)-2-ethoxybenzonitrile]
- AR-Vs Dmax % (maximum degradation rate) [1]: 91%
- AR-FL Dmax % (maximum degradation rate) [2]: 53%
- IC50 [3]: 452 nM

Structure (SMILES): Cn1c(=O)n(C2CCC(=O)NC2=O)c2ccc(N3CCC(C4CCN(CC5CCN(c6nccc(COc7ccc(C(C)(C)c8cc(Cl)cc(C#N)c8)cc7)n6)CC5)CC4)CC3)cc21 (stereo not shown) [Compound 88 trifluoroacetate, 3-chloro-5-(2-(4-((2-(4-((1′-(1-(2,6-dioxopiperidin-3-yl)-3-methyl-2-oxo-2,3-dihydro-1H-benzo[d]imidazol-5-yl)-[4,4′-bipiperidin]-1-yl)methyl)piperidin-1-yl)pyrimidin-4-yl)methoxy)phenyl)propan-2-yl)benzonitrile]
- AR-Vs Dmax % (maximum degradation rate) [1]: 73%
- AR-FL Dmax % (maximum degradation rate) [2]: 64%
- AUC(0-t) [4]: 740 ± 362 ng·h/mL
- IC50 ([3]; Homo sapiens, 22Rv1, 168 h): 899 nM

Structure (SMILES): CC(C)(c1ccc(OCc2ccnc(N3CCN(C4CCN(C5CN(c6ccc7c(c6)C(=O)N(C6CCC(=O)NC6=O)C7=O)C5)CC4)CC3)n2)cc1)c1cc(Cl)c(OCCCl)c(C#N)c1 (stereo not shown) [Compound 5 trifluoroacetate, 3-chloro-2-(2-chloroethoxy)-5-(2-(4-((2-(4-(1-(1-(2-(2,6-dioxopiperidin-3-yl)-1,3-dioxoisoindolin-5-yl)azetidin-3-yl)piperidin-4-yl)piperazin-1-yl)pyrimidin-4-yl)methoxy)phenyl)propan-2-yl)benzonitrile (Compound 5) trifluoroacetate]
- AR-FL Dmax % (maximum degradation rate) [2]: 52.5%
